Measurements: paper PMC8482776 (ACS Omega, 2021)
In brackets after ≈: the same amount, converted by molar mass.

How the values were obtained:
C. albicans (ATCC 10231) = assay: Microdilution MIC90, strain A; type: cell-based; settings: 24 h, strain A, yeast, 24 h at 37 °C, triplicate
C. krusei (ATCC 6258) = assay: Microdilution MIC90, strain B; type: cell-based; settings: yeast, 24 h at 37 °C, triplicate
[1] = test system: C. parapsilosis (ATCC 22019); assay: Microdilution MIC90, strain D; type: cell-based; settings: 24 h
[2] = test system: C. tropicalis (PTCC 5028); assay: Microdilution MIC90, strain E; type: cell-based; settings: 24 h
[3] = test system: Asp. nidulans (PTCC 5014); assay: Microdilution MIC90, strain F; type: cell-based, Aspergillus nidulans; settings: filamentous fungi, 48 h at 37 °C, triplicate
[4] = test system: Asp. flavus (ATCC 204304); assay: Microdilution MIC90, strain G; type: cell-based, Aspergillus flavus; settings: filamentous fungi, 48 h at 37 °C, triplicate
[5] = test system: Asp. fumigatus (PTCC 5009); assay: Microdilution MIC90, strain H; type: cell-based; settings: filamentous fungi, 48 h at 37 °C, triplicate
Asp. niger (PTCC 5154) = assay: Microdilution MIC90, strain I; type: cell-based, Aspergillus niger; settings: filamentous fungi, 48 h at 37 °C, triplicate
Asp. terreus (PTCC 5023) = assay: Microdilution MIC90, strain J; type: cell-based, Aspergillus terreus; settings: Aspergillus terreus, PTCC5023, 48 h, filamentous fungi, 48 h at 37 °C, triplicate
T. rubrum (PTCC 5143) = assay: Microdilution MIC90, strain K; type: cell-based, Trichophyton rubrum; settings: filamentous fungi, 48 h at 37 °C, triplicate
[6] = test system: T. mentagrophytes (PTCC 5054); assay: Microdilution MIC90, strain M; type: cell-based; settings: Trichophyton mentagrophytes, PTCC5054, 48 h
[7] = test system: T. schoenleinii (PTCC 5221); assay: Microdilution MIC90, strain N; type: cell-based; settings: Trichophyton schoenleinii, PTCC5221, 48 h
M. canis (PTCC 5069) = assay: Microdilution MIC90, strain O; type: cell-based; settings: Microsporum canis, PTCC5069, 48 h
C. glabrata (ATCC 90030) = assay: Microdilution MIC90, strain C; type: cell-based; settings: 24 h, yeast, 24 h at 37 °C, triplicate
[8] = test system: Microsporum gypseum (PTCC 5070); assay: Microdilution MIC90, strain L; type: cell-based; settings: filamentous fungi, 48 h at 37 °C, triplicate
[9] = Aspergillus nidulans, PTCC5014, 48 h
[10] = Aspergillus flavus, ATCC204304, 48 h
[11] = Aspergillus fumigatus, PTCC5009, 48 h
[12] = Aspergillus niger, PTCC5154, 48 h
[13] = Trichophyton rubrum, PTCC5143, 48 h

| SMILES | MIC90 (C. albicans (ATCC 10231)) | MIC90 (C. krusei (ATCC 6258); 24 h) | MIC90 [1] | MIC90 [2] | MIC90 [3, 9] | MIC90 [4, 10] | MIC90 [5, 11] | MIC90 (Asp. niger (PTCC 5154); [12]) | MIC90 (Asp. terreus (PTCC 5023)) | MIC90 (T. rubrum (PTCC 5143); [13]) | MIC90 [6] | MIC90 [7] | MIC90 (M. canis (PTCC 5069)) | MIC90 (C. glabrata (ATCC 90030)) | MIC90 [3] | MIC90 [4] | also measured |
| --- | --- | --- | --- | --- | --- | --- | --- | --- | --- | --- | --- | --- | --- | --- | --- | --- | --- |
| O=C(Nc1ccc(Cl)cc1)Nc1nnc(SCC(O)(Cn2cncn2)c2ccc(F)cc2F)s1 (stereo not drawn) [Compound 8a, 1-(4-Chlorophenyl)-3-(5-((2-(2,4-difluorophenyl)-2-hydroxy-3-(1H-1,2,4-triazol-1-yl)propyl)thio)-1,3,4-thiadiazol-2-yl)urea] | 32 µg/mL (≈ 61.1 µM) | 1 to 16 µg/mL (≈ 1.91 to 30.5 µM) | 8 µg/mL (≈ 15.3 µM) | 32 µg/mL (≈ 61.1 µM) | 16 µg/mL (≈ 30.5 µM) | 8 µg/mL (≈ 15.3 µM) | 2 to 4 µg/mL (≈ 3.82 to 7.63 µM) | 2 to 4 µg/mL (≈ 3.82 to 7.63 µM) | 8 µg/mL (≈ 15.3 µM) | 2 µg/mL (≈ 3.82 µM) | 16 µg/mL (≈ 30.5 µM) | 8 µg/mL (≈ 15.3 µM) | 2 µg/mL (≈ 3.82 µM) |  |  |  | MIC90 (C. krusei (ATCC 6258)): 1 μg·mL^–1; MIC90 [5]: 1 μg·mL^–1; MIC90 (Asp. niger (PTCC 5154)): 4 μg·mL^–1 |
| O=C(Nc1ccc(Br)cc1)Nc1nnc(SCC(O)(Cn2cncn2)c2ccc(F)cc2F)s1 (stereo not drawn) [Compound 8d, 1-(4-Bromophenyl)-3-(5-((2-(2,4-difluorophenyl)-2-hydroxy-3-(1H-1,2,4-triazol-1-yl)propyl)thio)-1,3,4-thiadiazol-2-yl)urea] | 32 µg/mL (≈ 56.3 µM) |  | 8 µg/mL (≈ 14.1 µM) | 32 µg/mL (≈ 56.3 µM) | 2 to 4 µg/mL (≈ 3.52 to 7.04 µM) | 8 µg/mL (≈ 14.1 µM) | 64 µg/mL (≈ 113 µM) | 64 µg/mL (≈ 113 µM) | 32 µg/mL (≈ 56.3 µM) | 4 µg/mL (≈ 7.04 µM) | 32 µg/mL (≈ 56.3 µM) | 32 µg/mL (≈ 56.3 µM) | 64 µg/mL (≈ 113 µM) | 32 µg/mL (≈ 56.3 µM) | 4 μg·mL^–1 |  |  |
| O=C(Nc1cccc(Cl)c1)Nc1nnc(SCC(O)(Cn2cncn2)c2ccc(F)cc2F)s1 (stereo not drawn) [Compound 8f, 1-(3-Chlorophenyl)-3-(5-((2-(2,4-difluorophenyl)-2-hydroxy-3-(1H-1,2,4-triazol-1-yl)propyl)thio)-1,3,4-thiadiazol-2-yl)urea] | 4 µg/mL (≈ 7.63 µM) |  | 8 µg/mL (≈ 15.3 µM) |  | 2 to 4 µg/mL (≈ 3.82 to 7.63 µM) | 2 to 4 µg/mL (≈ 3.82 to 7.63 µM) |  |  |  | 2 µg/mL (≈ 3.82 µM) |  |  |  |  | 4 μg·mL^–1 | 4 μg·mL^–1 | MIC90 [8]: 4 μg·mL^–1 |
| COc1cccc(NC(=O)Nc2nnc(SCC(O)(Cn3cncn3)c3ccc(F)cc3F)s2)c1 (stereo not drawn) [Compound 8h, 1-(5-((2-(2,4-Difluorophenyl)-2-hydroxy-3-(1H-1,2,4-triazol-1-yl)propyl)thio)-1,3,4-thiadiazol-2-yl)-3-(3-methoxyphenyl)urea] | 16 µg/mL (≈ 30.8 µM) | 8 µg/mL (≈ 15.4 µM) | 4 µg/mL (≈ 7.7 µM) | 16 µg/mL (≈ 30.8 µM) | 2 to 4 µg/mL (≈ 3.85 to 7.7 µM) | 8 µg/mL (≈ 15.4 µM) | 16 µg/mL (≈ 30.8 µM) | 8 µg/mL (≈ 15.4 µM) | 16 µg/mL (≈ 30.8 µM) | 2 µg/mL (≈ 3.85 µM) | 16 µg/mL (≈ 30.8 µM) | 32 µg/mL (≈ 61.6 µM) | 32 µg/mL (≈ 61.6 µM) |  | 4 μg·mL^–1 |  |  |
| Cc1cccc(NC(=O)Nc2nnc(SCC(O)(Cn3cncn3)c3ccc(F)cc3F)s2)c1 (stereo not drawn) [Compound 8i, 1-(5-((2-(2,4-Difluorophenyl)-2-hydroxy-3-(1H-1,2,4-triazol-1-yl)propyl)thio)-1,3,4-thiadiazol-2-yl)-3-(m-tolyl)urea] | 8 µg/mL (≈ 15.9 µM) | 16 µg/mL (≈ 31.8 µM) | 8 µg/mL (≈ 15.9 µM) | 8 µg/mL (≈ 15.9 µM) | 2 to 4 µg/mL (≈ 3.97 to 7.94 µM) | 2 to 4 µg/mL (≈ 3.97 to 7.94 µM) | 8 µg/mL (≈ 15.9 µM) | 16 µg/mL (≈ 31.8 µM) | 32 µg/mL (≈ 63.5 µM) | 16 µg/mL (≈ 31.8 µM) | 16 µg/mL (≈ 31.8 µM) | 8 µg/mL (≈ 15.9 µM) | 16 µg/mL (≈ 31.8 µM) | 32 µg/mL (≈ 63.5 µM) | 2 μg·mL^–1 | 2 μg·mL^–1 |  |
| O=C(Nc1cccc(C(F)(F)F)c1)Nc1nnc(SCC(O)(Cn2cncn2)c2ccc(F)cc2F)s1 (stereo not drawn) [Compound 8j, 1-(5-((2-(2,4-Difluorophenyl)-2-hydroxy-3-(1H-1,2,4-triazol-1-yl)propyl)thio)-1,3,4-thiadiazol-2-yl)-3-(3-(trifluoromethyl)phenyl)urea] |  | 32 µg/mL (≈ 57.4 µM) | 8 µg/mL (≈ 14.3 µM) | 16 µg/mL (≈ 28.7 µM) | 16 µg/mL (≈ 28.7 µM) | 16 µg/mL (≈ 28.7 µM) | 16 µg/mL (≈ 28.7 µM) | 32 µg/mL (≈ 57.4 µM) | 32 µg/mL (≈ 57.4 µM) | 8 µg/mL (≈ 14.3 µM) | 16 µg/mL (≈ 28.7 µM) | 16 µg/mL (≈ 28.7 µM) | 16 µg/mL (≈ 28.7 µM) | 32 µg/mL (≈ 57.4 µM) |  |  |  |
| O=C(Nc1nnc(SCC(O)(Cn2cncn2)c2ccc(F)cc2F)s1)Nc1ccccc1C(F)(F)F (stereo not drawn) [Compound 8k, 1-(5-((2-(2,4-Difluorophenyl)-2-hydroxy-3-(1H-1,2,4-triazol-1-yl)propyl)thio)-1,3,4-thiadiazol-2-yl)-3-(2-(trifluoromethyl)phenyl)urea] |  |  | 4 µg/mL (≈ 7.17 µM) | 16 µg/mL (≈ 28.7 µM) | 2 to 4 µg/mL (≈ 3.59 to 7.17 µM) | 2 to 4 µg/mL (≈ 3.59 to 7.17 µM) | 16 µg/mL (≈ 28.7 µM) | 16 µg/mL (≈ 28.7 µM) | 16 µg/mL (≈ 28.7 µM) | 8 µg/mL (≈ 14.3 µM) | 32 µg/mL (≈ 57.4 µM) | 16 µg/mL (≈ 28.7 µM) | 16 µg/mL (≈ 28.7 µM) | 16 µg/mL (≈ 28.7 µM) | 4 μg·mL^–1 | 2 μg·mL^–1 |  |

Further lines, with some results ahead:

| MIC90 (C. albicans (ATCC 10231)) | MIC90 (C. krusei (ATCC 6258); 24 h) | MIC90 [1] | MIC90 [2] | MIC90 [3, 9] | MIC90 [4, 10] | MIC90 [5, 11] | MIC90 (Asp. niger (PTCC 5154); [12]) | MIC90 (Asp. terreus (PTCC 5023)) | MIC90 (T. rubrum (PTCC 5143); [13]) | MIC90 [6] | MIC90 [7] | MIC90 (M. canis (PTCC 5069)) | MIC90 (C. glabrata (ATCC 90030)) | MIC90 [3] | MIC90 [4] | SMILES | also measured |
| --- | --- | --- | --- | --- | --- | --- | --- | --- | --- | --- | --- | --- | --- | --- | --- | --- | --- |
|  |  | 8 µg/mL (≈ 15.3 µM) |  | 8 µg/mL (≈ 15.3 µM) | 2 to 4 µg/mL (≈ 3.82 to 7.63 µM) |  |  |  |  |  |  |  |  |  | 4 μg·mL^–1 | O=C(Nc1nnc(SCC(O)(Cn2cncn2)c2ccc(F)cc2F)s1)Nc1ccccc1Cl (stereo not drawn) [Compound 8l, 1-(2-Chlorophenyl)-3-(5-((2-(2,4-difluorophenyl)-2-hydroxy-3-(1H-1,2,4-triazol-1-yl)propyl)thio)-1,3,4-thiadiazol-2-yl)urea] |  |
| 32 µg/mL (≈ 56.3 µM) |  | 16 µg/mL (≈ 28.1 µM) | 8 µg/mL (≈ 14.1 µM) | 8 µg/mL (≈ 14.1 µM) | 8 µg/mL (≈ 14.1 µM) | 32 µg/mL (≈ 56.3 µM) | 32 µg/mL (≈ 56.3 µM) | 16 µg/mL (≈ 28.1 µM) | 2 to 4 µg/mL (≈ 3.52 to 7.04 µM) | 32 µg/mL (≈ 56.3 µM) | 64 µg/mL (≈ 113 µM) | 64 µg/mL (≈ 113 µM) | 16 µg/mL (≈ 28.1 µM) |  |  | O=C(Nc1nnc(SCC(O)(Cn2cncn2)c2ccc(F)cc2F)s1)Nc1ccccc1Br (stereo not drawn) [Compound 8m, 1-(2-Bromophenyl)-3-(5-((2-(2,4-difluorophenyl)-2-hydroxy-3-(1H-1,2,4-triazol-1-yl)propyl)thio)-1,3,4-thiadiazol-2-yl)urea] | MIC90 (T. rubrum (PTCC 5143)): 4 μg·mL^–1 |
|  |  |  |  | 2 to 4 µg/mL (≈ 3.97 to 7.94 µM) | 8 µg/mL (≈ 15.9 µM) |  |  |  |  |  |  |  |  | 4 μg·mL^–1 |  | Cc1ccccc1NC(=O)Nc1nnc(SCC(O)(Cn2cncn2)c2ccc(F)cc2F)s1 (stereo not drawn) [Compound 8n, 1-(5-((2-(2,4-Difluorophenyl)-2-hydroxy-3-(1H-1,2,4-triazol-1-yl)propyl)thio)-1,3,4-thiadiazol-2-yl)-3-(o-tolyl)urea] |  |
| 32 µg/mL (≈ 57.3 µM) |  | 4 µg/mL (≈ 7.16 µM) | 16 µg/mL (≈ 28.7 µM) | 8 µg/mL (≈ 14.3 µM) | 8 µg/mL (≈ 14.3 µM) | 32 µg/mL (≈ 57.3 µM) | 32 µg/mL (≈ 57.3 µM) | 8 µg/mL (≈ 14.3 µM) | 2 to 4 µg/mL (≈ 3.58 to 7.16 µM) | 16 µg/mL (≈ 28.7 µM) | 16 µg/mL (≈ 28.7 µM) | 16 µg/mL (≈ 28.7 µM) |  |  |  | O=C(Nc1ccc(Cl)c(Cl)c1)Nc1nnc(SCC(O)(Cn2cncn2)c2ccc(F)cc2F)s1 (stereo not drawn) [Compound 8q, 1-(3,4-Dichlorophenyl)-3-(5-((2-(2,4-difluorophenyl)-2-hydroxy-3-(1H-1,2,4-triazol-1-yl)propyl)thio)-1,3,4-thiadiazol-2-yl)urea] | MIC90 (T. rubrum (PTCC 5143)): 4 μg·mL^–1 |
